What was measured:
[1] = Sensory evaluation of sweetness linger by expert panel, Example Set G (citric acid/potassium citrate base); type: in vivo; parameters: key: 0=no sweetness linger; 1=very slight sweetness linger; 2=slight sweetness linger; 3=moderate sweetness linger; 4=moderately high sweetness linger; 5=high sweetness linger; conditions: scale 0-5; 400 ppm REBA in citric acid/potassium citrate composition equivalent to diet lemon-lime beverage, additive per example; sugar control 8 g in 100 ml citrate buffer
Method: Sensory evaluation of the samples prepared in Example Set G was carried out under the following protocol, similar to that described hereinabove. In this test protocol, none of the samples were swallowed. All samples were expectorated and the mouth was rinsed with water after the tasting. Immediately upon sensing maximal sweetness, the sample was expectorated, the mouth was rinsed with water and the rate of sweetness decay (“Sweetness Linger”) was measured, where attention was focused on the sweetness 3-4 min after the water rinse. After sample tasting was complete, a salty oyster cracker was chewed followed by a water rinse, and at least 5 minutes followed before tasting the next sample. […]
The effects of formulation change on the sweetness linger of 400 ppm REBA (equivalent to 8 g sucrose) in a citric acid/potassium citrate composition equivalent to that in a diet lemon-lime beverage were evaluated. The sweetness linger rating of this solution was determined to be 5.
8 g of sugar was dissolved in 100 ml of citrate buffer. The sweetness linger rating of this control sample was determined to be 0.

[2] = Sensory evaluation of sweetness linger by expert panel, Example Set H (phosphoric acid base); type: in vivo; parameters: key: 0=no sweetness linger; 1=very slight sweetness linger; 2=slight sweetness linger; 3=moderate sweetness linger; 4=moderately high sweetness linger; 5=high sweetness linger; conditions: scale 0-5; 500 ppm REBA (H41: 360 ppm) in carbon-treated water, phosphoric acid (75%) to pH 2.4-2.5, additive per example; sugar control 10 g in 100 ml
[3] = Rate of dissolution in H2O at 25° C. of rebaudioside A polymorph and amorphous forms; type: physicochemical; conditions: grade in words

Row | Rate of dissolution in H2O at 25° C. [3] | Compound | Sweetness linger [1] | Sweetness linger [2]
1 |  | OC[C@H]1O[C@@](CO)(O[C@H]2O[C@H](CO)[C@@H](O)[C@H](O)[C@H]2O)[C@@H](O)[C@@H]1O [sugar, sucrose] | 0 | 0
2 |  | rebaudioside A | 5 | 5
3 | Very low | rebaudioside A [Form 1] |  | 
4 | Intermediate | rebaudioside A [Form 2] |  | 
5 | High | rebaudioside A [Form 3] |  | 
6 | High | rebaudioside A [Form 4] |  | 

Source: patent US20070116836A1, “High-Potency Sweetener Composition for Treatment and/or Prevention of Osteoporosis and Compositions Sweetened Therewith” (THE COCA-COLA COMPANY, priority 2005, published 2007)
